By Kd is commonly meant the equilibrium constant for the complex coming apart.

Experiment [1] deals with T1, PP1γ catalytic domain : GADD34 peptide pre-formed complex (Mus musculus, UniProt P63087).
T1 construct: mouse PP1γ catalytic domain (residues 7–300)-H6; His6 (C); made in house; host or cells: E. coli T7 Express lysY/Iq (PP1γ); tracer peptide synthesised by GenScript
The experiment can be described thus: Competition fluorescence anisotropy, displacement of FITC-GADD34 peptide from PP1γ (HEPES pH 8.0). It counts as binding. The conditions noted are these: 2 nM fluorescent GADD34 peptide + 250 nM PP1γ; for Displacement of GADD34 peptide from PP1 by TROPPO peptides: competitor at over 1000-fold molar excess, HEPES pH 8.0, 500 mM NaCl, 0.05% TWEEN-20, 27 °C. The text has this:
(§1) Bacterial expression plasmids encoding the mouse PP1γ catalytic domain (residues 7–300)-H6 and pUL21-H6, and mammalian expression vectors encoding pUL21(FV242AA)-GFP, pORF38-GFP and pORF38(FV255AA)-GFP, were described previously ([23]). We note that the mouse and human PP1γ catalytic domains share 100% amino acid identity. pORF38-NLT-H6 was generated by sub-cloning residues 1 to 263 of ORF38 into the vector pOPTnH ([52]). pUL21-RVxF-H6 was generated by inserting the mutations A237V and V239F into pUL21-H6 by QuikChange site-directed mutagenesis. Human PP1α was cloned from HeLa cell cDNA into a vector derived from pF5K (Promega) with an N-terminal Myc epitope tag via restriction-based cloning, and point mutations were introduced into Myc-PP1α by QuikChange mutagenesis. A plasmid encoding pUL21-GFP was generated by sub-cloning a codon-optimized synthetic UL21 gene (GeneArt) into pEGFP-N1 (Clontech), yielding an identical pUL21-GFP amino acid sequence as used in ([23]). pUL21-ΔL, -ΔR and -ΔLR were generated from this vector via inverse PCR, and point mutations were introduced via QuikChange mutagenesis.
Peptides were commercially synthesised to >95% purity (GenScript) as follows: GADD34 RVxF+ϕϕ[xF] […]
Proteins were expressed using E. coli T7 Express lysY/I^q cells (New England Biolabs) grown in 2 × TY medium at 37 °C to OD600 0.8 to 1.2 before cooling to 22 °C and induction of protein expression using 0.4 mM IPTG. […] Fractions were analysed by SDS-PAGE and those containing the desired protein were pooled, concentrated using centrifugal concentrators (Millipore) and stored at 4 °C (short-term) or snap-frozen in liquid nitrogen for long-term storage at −70 °C.
Fluorescence anisotropy was measured using a SpectraMax i3 microplate reader (Molecular Devices) with wavelengths 485 ± 20 nm (excitation) and 535 ± 25 nm (emission). Samples (100 μl per well) were dispensed into low-bind black half-area 96-well microtitre plates (Corning) and fluorescence anisotropy was recorded at 27 °C. […]
(Polarisation of emitted light reports the rotation of a fluorescent probe.)

Experiment [2] concerns the target T2, PP1γ catalytic domain (7–300), C-terminally His6-tagged (Mus musculus, UniProt P63087).
T2 construct: mouse PP1γ catalytic domain (residues 7–300)-H6; made in house; host or cells: E. coli T7 Express lysY/Iq
The experiment can be described thus: Isothermal titration calorimetry (ITC). The experiment is classed as binding. Also noted: key to KD / ∆H / ∆G / -T∆S / N (sites): –: no binding detected. The conditions noted are these: for ITC heats of TROPPO peptides against PP1 catalytic domain: 500–1000 μM peptide titrated, 50 mM HEPES pH 8.0, 500 mM NaCl.
From the text: as §1
Proteins were expressed using E. coli T7 Express lysY/I^q cells (New England Biolabs) grown in 2 × TY medium at 37 °C to OD600 0.8 to 1.2 before cooling to 22 °C and induction of protein expression using 0.4 mM IPTG. Cells were harvested at 16 to 20 h post-induction and pellets stored at −70 °C until required. Cells were resuspended in chilled lysis buffer (20 mM Tris pH 7.5, 20 mM imidazole, 500 mM NaCl, 1.4 mM β-mercaptoethanol 0.5 mM MgCl2 and 0.05% TWEEN-20 [plus 1 mM MnCl2 for PP1]) that was supplemented with 200 μl EDTA-free protease inhibitor cocktail (Merck) and 400 U bovine DNase I (Merck). Cells were lysed using a TS series cell disruptor (Constant Systems) at 24 kpsi and lysates were clarified (40,000×g, 30 min, 4 °C) before incubation with Ni-NTA agarose (Qiagen) for 1 h at 4 °C. The resin was washed with ≥20 column volumes of wash buffer (20 mM Tris, 20 mM imidazole and 500 mM NaCl [plus 1 mM MnCl2 for PP1]) at pH 7.5 (PP1γ and pORF38-NLT) or pH 8.5 (pUL21 and pUL21-RVxF). Protein was eluted using wash buffer supplemented with additional imidazole (final concentration 250 mM) and proteins were subjected to size-exclusions chromatography using HiLoad 16/600 Superdex 75 (PP1) or Superdex 200 (other) columns equilibrated in 20 mM Tris pH 8.5, 500 mM NaCl, 1 mM DTT (for pUL21 and pUL21-RVxF) or 50 mM HEPES pH 8.0, 500 mM NaCl, 0.5 mM TCEP (for PP1 and pORF38-NLT). Fractions were analysed by SDS-PAGE and those containing the desired protein were pooled, concentrated using centrifugal concentrators (Millipore) and stored at 4 °C (short-term) or snap-frozen in liquid nitrogen for long-term storage at −70 °C.
ITC experiments were performed using a MicroCal PEAQ-ITC automated calorimeter (Malvern Panalytical). The solvent (ITC buffer) was 50 mM HEPES pH 8.0, 500 mM NaCl, 0.5 mM TCEP. Lyophilized peptides were dissolved into ITC buffer and their concentration was estimated from dry mass. Proteins were diluted in ITC buffer, and their concentration was estimated from the theoretical extinction coefficient at 280 nm ([53]). […] Data were analyzed using MicroCal PEAQ-ITC analysis software (Malvern Panalytical) and fitted using a one-site binding model.
Table S1. Isothermal titration calorimetry (ITC) of PP1 with TROPPO-containing peptides and proteins. Data for independent experiments are shown. For all, the cell contained C-terminally His6-tagged mouse PP1γ (7–300). –, no binding detected.
In general terms: Isothermal titration calorimetry measures the heat released or taken up as one component is titrated into another.

Where [3] appears, read: TROPPO peptide, independent experiment 3, syringe/cell µM: pORF38 500/16.0.
[4] abbreviates: TROPPO peptides, independent experiment 1, syringe/cell µM: pUL21 1000/58.8, pORF38 1000/79.6.
[5] abbreviates: TROPPO peptides, independent experiment 1, syringe/cell µM: pUL21 1000/58.8, pORF38 1000/79.6, HEPES pH 8.0, 25 °C.
Where [6] appears, read: TROPPO peptides, independent experiment 2, syringe/cell µM: pUL21 1000/54.5, pORF38 500/17.0.
Setting [7] is: TROPPO peptides, independent experiment 2, syringe/cell µM: pUL21 1000/54.5, pORF38 500/17.0, HEPES pH 8.0, 25 °C.
Where [8] appears, read: independent experiment 1, 240 µM titrant, 17.0 µM PP1, HEPES pH 8.0, 25 °C.
The mark [9] stands for this setting: independent experiment 2, 147 µM titrant, 10.0 µM PP1, HEPES pH 8.0, 25 °C.
Setting [10] is: independent experiment 3, 153 µM titrant, 9.5 µM PP1, HEPES pH 8.0, 25 °C.

Like-named read-outs stand apart in the source and are kept apart here.

T2 sequence (P63087 7-300): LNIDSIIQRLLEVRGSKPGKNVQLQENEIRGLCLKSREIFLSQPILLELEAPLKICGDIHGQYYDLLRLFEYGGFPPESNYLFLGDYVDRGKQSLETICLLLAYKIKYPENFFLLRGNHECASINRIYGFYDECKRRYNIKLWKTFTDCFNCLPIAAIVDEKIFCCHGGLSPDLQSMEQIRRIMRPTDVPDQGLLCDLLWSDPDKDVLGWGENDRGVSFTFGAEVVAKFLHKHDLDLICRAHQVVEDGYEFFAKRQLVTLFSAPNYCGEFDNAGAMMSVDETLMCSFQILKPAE
T1 sequence (P63087 7-300, one chain of several): as the sequence (P63087 7-300) above

In the case of “KSDHITLSNFVQIRTIPR [pORF38 TROPPO, pORF38 TROPPO peptide (residues 246–263)]”, the “Displacement of GADD34 peptide from PP1 by TROPPO peptides” value in experiment [1] was “Neither TROPPO-containing peptide was able to displace the GADD34 peptide”. Further, the “ITC heats of TROPPO peptides against PP1 catalytic domain” value in experiment [2] (0.5 mM TCEP, 25 °C) is recorded as “did not evolve heats above background levels”. For the same molecule, the “-T∆S” value in experiment [2] (setting [3]), in experiment [2] (setting [4]) and in experiment [2] (setting [6]) was “–” throughout. The “N (sites)” value in experiment [2] (setting [3]), in experiment [2] (setting [4]) and in experiment [2] (setting [6]) was “–” throughout. For the same molecule, the “∆G” value in experiment [2] (setting [3]), in experiment [2] (setting [4]) and in experiment [2] (setting [6]) was “–” in each case. Further, the “∆H” value in experiment [2] (setting [3]), in experiment [2] (setting [4]) and in experiment [2] (setting [6]) was “–” in each case. Besides, the KD entry in experiment [2] (TROPPO peptide, independent experiment 3, syringe/cell µM: pORF38 500/16.0, HEPES pH 8.0, 25 °C) is listed as “–”; in experiment [2] (setting [5]), “–”; in experiment [2] (setting [7]), “–”.
As for “AKRATVSEFVQVKHIDR [pUL21 TROPPO, pUL21 TROPPO peptide (residues 234–250)]”, the “Displacement of GADD34 peptide from PP1 by TROPPO peptides” value in experiment [1] is “Neither TROPPO-containing peptide was able to displace the GADD34 peptide”. Further, in experiment [2] (0.5 mM TCEP, 25 °C), the “ITC heats of TROPPO peptides against PP1 catalytic domain” value is “did not evolve heats above background levels”. Moreover, in experiment [2] (setting [4]), the “-T∆S” value is “–”, the “N (sites)” value is “–”, the “∆G” value is “–” and the “∆H” value is recorded as “–”. For the same molecule, in experiment [2] (setting [5]), the KD result is reported as “–”. For the same molecule, in experiment [2] (setting [6]), the “-T∆S” value is on record as “–”, the “N (sites)” value was “–”, the “∆G” value is on record as “–” and the “∆H” value is listed as “–”. The KD entry in experiment [2] (setting [7]) was “–”.

B1: pORF38-NLT: VZV pORF38 N-terminal domain plus Linker region up to the end of the TROPPO motif (residues 1 to 263) (protein)
chain: MEFPYHSTVSYNGVTFYFNERATRAYFICGGCLISIPRKHGGEIAKFGHVVRGVGPGDRSVASYVRSELNRTGKTWAVSSNNNCVFLDRVALLAAGSGAVDRDLCGTFDVEVEDPTLADYLVSLPVTHLTLVAGVDVTRENKLKLFPTPTAINTTNGFMYVPNEASFSLVYMRMLELPESLQELVSGLFDGTPEIRDALNGSNDDEKTSIIVSRRAADVVTEDVKADDVPISGEPYSEKQPRRRKKSDHITLSNFVQIRTIPR
modifications: left off: His6, C-terminal, kept
As to B1, the “Competition with RVxF peptide for PP1 binding” value in experiment [1] (increasing concentrations of pORF38-NLT, HEPES pH 8.0) is recorded as “competes with the RVxF peptide for PP1 binding”. The “ΔH, mean” value in experiment [2] (25 °C, HEPES pH 8.0, average of three independent experiments) is -13.3 kcal/mol. Further, the Kd was 719 nM in experiment [2] (independent experiment 1, 240 µM titrant in syringe, 17.0 µM PP1 in cell, HEPES pH 8.0, 25 °C, read-out: KD); 540 nM in experiment [2] (independent experiment 2, 147 µM titrant in syringe, 10.0 µM PP1 in cell, HEPES pH 8.0, 25 °C, read-out: KD); 231 nM in experiment [2] (independent experiment 3, 153 µM titrant in syringe, 9.5 µM PP1 in cell, HEPES pH 8.0, 25 °C, read-out: KD); ~500 nM in experiment [2] (pORF38-NLT titrated into PP1, HEPES pH 8.0, 500 mM NaCl, 0.5 mM TCEP, 25 °C, one-site model, mean ± SEM, three independent experiments, listed as pOPF38-NLT, read-out: Affinity (KD), mean). Besides, the “-T∆S” value in experiment [2] (setting [8]) amounted to 4.76 kcal/mol; in experiment [2] (setting [9]), 4.72 kcal/mol; in experiment [2] (setting [10]), 4.5 kcal/mol. Also, the results for the “N (sites)” value in experiment [2] (setting [8]), in experiment [2] (setting [9]) and in experiment [2] (setting [10]) were 1.21 sites, 0.965 sites and 0.838 sites, respectively. Further, the results for the “∆G” value in experiment [2] (setting [8]), in experiment [2] (setting [9]) and in experiment [2] (setting [10]) were -8.38 kcal/mol, -8.55 kcal/mol and -9.06 kcal/mol, respectively. Also, the figures for the “∆H” value in experiment [2] (setting [8]), in experiment [2] (setting [9]) and in experiment [2] (setting [10]) were -13.1 kcal/mol, -13.3 kcal/mol and -13.6 kcal/mol, respectively. In addition, the “PP1 binding compared with GADD34 peptide” value in experiment [2] (pORF38-NLT ITC versus GADD34 peptide by fluorescence anisotropy or ITC) is on record as “substantially weaker binding than observed for the GADD34 peptide”.

The values above are taken from paper PMC12723162, “Alphaherpesvirus pUL21 homologs use non-canonical sequences to compete with cellular adaptors for protein phosphatase 1 binding” (The Journal of Biological Chemistry, 2025).
